Assay results: publication PMC8315922, “In Vitro Identification and In Vivo Confirmation of Inhibitors for Sweet Potato Chlorotic Stunt Virus RNA Silencing Suppressor, a Viral RNase III” (Journal of Virology, 2021)

Assays:
[1] = molecular target: T1, CSR3 (Sweet potato chlorotic stunt virus, UniProt Q8JJW8); test: Binding affinity assay using MST; details: for Binding (Yes/No): MST binding call; for Binding (Yes/No) / Response Amplitude: Table S4; for Response Amplitude: MST response amplitude; for Comments: MST behaviour of compound (V-shape response, fluorescence quenching, interference, aggregator)
T1 sequence (Q8JJW8 1-228): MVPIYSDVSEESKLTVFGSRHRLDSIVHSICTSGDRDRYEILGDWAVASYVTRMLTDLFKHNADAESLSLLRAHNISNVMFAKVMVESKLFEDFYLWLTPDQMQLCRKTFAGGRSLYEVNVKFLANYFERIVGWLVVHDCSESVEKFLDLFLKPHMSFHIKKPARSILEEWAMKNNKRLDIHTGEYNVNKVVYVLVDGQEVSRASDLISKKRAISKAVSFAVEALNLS
Method: (§1) Binding affinity assays were first carried out with the 99 commercial compounds using the MST method.
The labeled-protein solution containing 500 nM proteins and 40 nM dye was prepared in PBS buffer with 2% dimethyl sulfoxide (DMSO) for the assay. The 12 concentrations for each compound were obtained by 2-fold serial dilutions (0.2 μM to 400 μM). […] Two independent experiments were carried out in premium coated capillaries (NanoTemper, Munich, Germany) using a Monolith NT.Automated instrument (NanoTemper) with the power set at high (80%), the light-emitting diode (LED) power (pico red) set at 5%, and the on-time set at 20 s. The dissociation constant (Kd) was determined using the MO.Affinity Analysis program (NanoTemper).

[2] = molecular target: T1, CSR3; test: Binding affinity assay using SPR; details: for Kd: unit inferred, read-out: Steady State Affinity
Method: as §1
CSR3 was purified as described above and stored in PBS buffer. SPR was performed on a BiacoreT100 instrument (GE Healthcare) using a sensor S CM5 chip (GE Healthcare). CSR3 (10 ng/μl) was immobilized using the standard amine-coupling method according to the manufacturer’s instructions with immobilization buffer (10 mM sodium acetate [pH 4]); the final response unit (RU) value was 11,459. Compounds at a single concentration (100 μM) or consisting of 2-fold serial dilutions (3 μM to 200 μM) were flowed over the sensor surface using PBS buffer with 0.01 M HEPES, 0.05% surfactant P20, and 2% DMSO. […] To eliminate bulk interference by DMSO, a solvent correction consisting of DMSO at concentrations ranging from 1.5% to 2.8% was carried out for every 30 samples. Steady-state affinity (KD) values were determined using BiacoreT100 Evaluation software, v.2.04 (GE Healthcare).

[3] = tested on: sweetpotato plants; details: 50 μM in culture medium
[4] = tested on: SPFMV; test: Virus accumulation (RT-qPCR of coat protein RNA) in coinfected sweetpotato plants grown in culture medium: SPFMV; format: in vivo, Sweet potato feathery mottle virus; details: for SPFMV_FC (fold change of viral accumulation): 50 μM in culture medium, 28 days, relative to DMSO control; for SPFMV accumulation reduced / viral titer SPFMV (log2 fold change relative to controls): plants in culture medium, 50 μM
Method: Since tests in culture medium consume smaller amounts of compounds and can be carried out under relatively controlled conditions, sweetpotato plants coinfected with SPCSV and SPFMV were grown in medium supplemented with one of the 30 inhibitor candidates at a concentration of 50 μM. Their effects on plant growth were monitored by imaging the plants once a week. […] In addition, virus accumulation was quantified by measuring the relative abundance of the transcripts encoding viral coat proteins using RT-qPCR ([32]). The effect of individual compounds on virus accumulation was estimated by comparing treated and control plants.
Sweetpotato plants cultivar 'Huachano' (accession CIP420065) were side-graft inoculated with both SPFMV (East African strain isolate Nam1) and SPCSV-Ug (East African serotype 2) as described previously ([62]). Plantlets were propagated by taking single-node stems grown in a plant culture medium ([33]). Next, plantlets with newly formed roots were transferred to glass tubes (18 by 150 mm) containing 10 ml of medium supplemented with either 50 μM compound (diluted in DMSO; final DMSO concentration, 0.1%) or only 0.1% DMSO as a control. For plant experiments in soil, plantlets were transferred to pots (6 by 6 by 10 cm) filled with a mixture of sand, humus, and washed soil. After 1 week, plants were treated by foliar spraying using either individual compounds at a single concentration (10 μM) (treatment) or water (control/mock) twice a week for 1 month. All plants were grown at 22°C with 60% humidity and a 16-h light/8-h dark photoperiod for 28 days in culture medium and for 41 days in soil. The Finnish National Plant Phenotyping Infrastructure (NaPPI) was used to monitor plant viral disease symptoms as described in our previous study ([33]). Four compounds were tested with the phenotyping platform in two independent batches, each of which included five biological replicates.
Leaf samples were collected from plants grown in culture medium or soil for 28 or 41 days, respectively, and frozen in liquid nitrogen. Total RNA was extracted using the Spectrum plant total RNA kit (Sigma-Aldrich). First-strand cDNA was synthesized using the Transcriptor first-strand cDNA synthesis kit (Roche, Basel, Switzerland). […] All RT-qPCR experiments were conducted in triplicate on three and five biological replicates from plants grown in culture medium and soil, respectively. The primer list can be found in our previous study ([33]).
For HTS, the activity of CSR3 was calculated by measuring the change in fluorescence as a function of the reaction time using MARS Data Analysis software (BMG Labtech). To evaluate the CSR3 inhibition efficiency of individual compounds, the PI of each compound was calculated using the slope values for the sample, positive control, and negative control according to the following equation: PI = 100 × [1 − (sample − positive)/(negative − positive)]%. IC50 and DSS values were calculated using concentration-specific PI values according to a previous study ([31]). Relative gene expression was calculated using the classical 2^−ΔΔ^CT method ([63]).

[5] = SPR dose-response 3 μM to 200 μM, 25°C, numbers match M (cf. Fig 5A)

Row | SMILES | Binding (Yes/No) [1] | Response Amplitude [1] | Kd [2, 5] [µM] | Toxicity [3] | SPFMV_FC (fold change of viral accumulation) [4] | SPFMV accumulation reduced [4] [fold] | viral titer SPFMV (log2 fold change relative to controls) [4] | KD (SPR) ([2]; steady-state affinity, Fig 5A) | Comments [1] | Steady State Affinity ([2]; SPR dose-response 3 μM to 200 μM, 25°C, unit not given, numbers match M (cf. Fig 5A))
1 | Cc1ccc(C2Nc3ccc(C(=O)O)cc3C3C=CCC32)cc1 (stereo not shown) [FIMM031755] | No | 0 | 3.76 | no | 0.5653 | ~2 | −0.82 | – | – | –
2 | O=C(O)c1ccc(C2Nc3c(Br)cccc3C3C=CCC32)cc1 (stereo not shown) [FIMM022230] | No | 68 | – | no | 0.2613 | ~4 | −1.93 | millimolar range | – | –
3 | O=C1c2c(O)ccc(O)c2C(=O)c2c(NCCNCCO)ccc(NCCNCCO)c21 [FIMM000490] | No | 0 | 0.137 | no | 1.747 | – | – | – | Interference | –
4 | COc1cc(C=C2C(=O)NC(=S)NC2=O)ccc1OCc1ccccc1[N+](=O)[O-] [FIMM101864] | No | 0 | – | – | 1.376 | – | – | – | Aggregator | non binder
